# Results reported in article PMC8231556, “Inhibiting Endothelial Cell Function in Normal and Tumor Angiogenesis Using BMP Type I Receptor Macrocyclic Kinase Inhibitors” (Cancers, 2021).
# Experiments:
# [1] = biological target: ALK1 (Homo sapiens, UniProt P37023); assay: radiometric protein kinase assay, affinity (Kd); type: binding
# Experimental: The binding interaction profile of the compounds for ALK1–6, ACVR2A, ACVR2B, and TGFβR2 was determined by using radiometric protein kinase assay. For each compound, ten different concentrations (from 3 × 10^−6 M to 9 × 10^−11 M) were used in the protein kinase reaction.
# [2] = biological target: ACVR2B (Homo sapiens, UniProt Q13705); assay: radiometric protein kinase assay, affinity (Kd); type: binding
# Sequence of ACVR2B (Q13705 19-512): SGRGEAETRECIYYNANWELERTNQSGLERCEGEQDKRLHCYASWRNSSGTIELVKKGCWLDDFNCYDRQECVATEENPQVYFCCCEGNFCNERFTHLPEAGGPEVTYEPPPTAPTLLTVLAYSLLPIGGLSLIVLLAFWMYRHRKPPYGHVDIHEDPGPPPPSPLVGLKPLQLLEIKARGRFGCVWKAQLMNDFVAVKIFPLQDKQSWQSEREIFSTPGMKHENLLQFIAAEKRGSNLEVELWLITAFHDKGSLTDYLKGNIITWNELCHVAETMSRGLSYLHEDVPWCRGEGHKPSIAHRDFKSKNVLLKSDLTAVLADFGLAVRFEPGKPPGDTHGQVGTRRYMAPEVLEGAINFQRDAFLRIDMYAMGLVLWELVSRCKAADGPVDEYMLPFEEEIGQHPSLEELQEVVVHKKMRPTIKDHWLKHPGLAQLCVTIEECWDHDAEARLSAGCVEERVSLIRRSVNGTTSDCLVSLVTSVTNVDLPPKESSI
# Experimental: (§1) The binding interaction profile of the compounds for ALK1–6, ACVR2A, ACVR2B, and TGFβR2 was determined by using radiometric protein kinase assay. For each compound, ten different concentrations (from 3 × 10^−6 M to 9 × 10^−11 M) were used in the protein kinase reaction. The inhibitor binding constants (Kd values) were calculated based on the 10 corresponding residual activities for each compound using Prism 5.04 (Graphpad, San Diego, CA, USA) according to the following formula:Kd = ([K][I]/[C]) where [K] = molar concentration of non-inhibitor bound kinase at equilibrium, [I] = molar concentration of the free inhibitor at equilibrium, [C] = molar concentration of kinase-inhibitor complex at equilibrium.
# [3] = biological target: ALK2 (Homo sapiens, UniProt Q04771); assay: radiometric protein kinase assay, affinity (Kd); type: binding
# Sequence of ALK2 (Q04771 21-509): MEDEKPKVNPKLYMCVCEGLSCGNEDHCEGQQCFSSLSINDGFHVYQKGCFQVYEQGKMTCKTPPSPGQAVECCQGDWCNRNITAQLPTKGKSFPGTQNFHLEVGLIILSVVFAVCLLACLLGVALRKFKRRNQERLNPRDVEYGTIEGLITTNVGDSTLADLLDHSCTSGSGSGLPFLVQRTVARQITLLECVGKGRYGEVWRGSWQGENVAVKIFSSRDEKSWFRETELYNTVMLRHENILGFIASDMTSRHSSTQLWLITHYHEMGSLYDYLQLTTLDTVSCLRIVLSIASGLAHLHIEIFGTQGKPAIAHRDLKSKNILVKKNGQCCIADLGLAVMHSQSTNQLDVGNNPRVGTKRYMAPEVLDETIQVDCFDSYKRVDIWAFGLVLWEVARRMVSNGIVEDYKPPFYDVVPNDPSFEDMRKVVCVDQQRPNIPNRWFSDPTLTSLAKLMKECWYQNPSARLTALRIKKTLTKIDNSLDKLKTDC
# Experimental: as §1
# [4] = biological target: ALK3 (Homo sapiens, UniProt P36894); assay: radiometric protein kinase assay, affinity (Kd); type: binding
# Sequence of ALK3 (P36894 24-532): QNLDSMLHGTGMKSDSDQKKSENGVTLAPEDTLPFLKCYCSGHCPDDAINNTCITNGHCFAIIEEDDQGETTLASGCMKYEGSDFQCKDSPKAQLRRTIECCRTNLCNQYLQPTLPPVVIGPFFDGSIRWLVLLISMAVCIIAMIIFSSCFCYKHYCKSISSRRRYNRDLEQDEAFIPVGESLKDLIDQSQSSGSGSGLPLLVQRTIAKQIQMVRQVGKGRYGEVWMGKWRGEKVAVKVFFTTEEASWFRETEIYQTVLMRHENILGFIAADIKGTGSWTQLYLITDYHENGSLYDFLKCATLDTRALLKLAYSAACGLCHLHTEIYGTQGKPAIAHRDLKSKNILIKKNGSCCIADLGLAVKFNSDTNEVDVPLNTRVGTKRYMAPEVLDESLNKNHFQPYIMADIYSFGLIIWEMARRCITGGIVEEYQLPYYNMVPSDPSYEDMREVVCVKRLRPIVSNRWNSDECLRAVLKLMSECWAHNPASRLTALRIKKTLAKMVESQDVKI
# Experimental: as §1
# [5] = biological target: ALK4 (Homo sapiens, UniProt P36896); assay: radiometric protein kinase assay, affinity (Kd); type: binding
# Sequence of ALK4 (P36896 24-505): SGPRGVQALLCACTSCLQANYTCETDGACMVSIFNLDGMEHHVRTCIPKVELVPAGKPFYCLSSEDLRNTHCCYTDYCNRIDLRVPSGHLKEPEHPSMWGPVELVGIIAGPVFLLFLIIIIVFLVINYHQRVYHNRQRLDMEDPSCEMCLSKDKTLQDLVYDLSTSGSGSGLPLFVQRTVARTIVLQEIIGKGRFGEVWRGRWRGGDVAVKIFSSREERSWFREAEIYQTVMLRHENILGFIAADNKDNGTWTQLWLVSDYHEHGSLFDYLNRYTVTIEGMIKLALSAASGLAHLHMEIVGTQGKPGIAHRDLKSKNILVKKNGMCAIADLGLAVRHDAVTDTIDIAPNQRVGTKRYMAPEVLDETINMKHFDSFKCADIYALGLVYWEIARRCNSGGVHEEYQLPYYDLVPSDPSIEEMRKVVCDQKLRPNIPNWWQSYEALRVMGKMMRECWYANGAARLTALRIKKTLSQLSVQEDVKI
# Experimental: as §1
# [6] = biological target: ALK5 (Homo sapiens, UniProt P36897); assay: radiometric protein kinase assay, affinity (Kd); type: binding
# Sequence of ALK5 (P36897 34-503): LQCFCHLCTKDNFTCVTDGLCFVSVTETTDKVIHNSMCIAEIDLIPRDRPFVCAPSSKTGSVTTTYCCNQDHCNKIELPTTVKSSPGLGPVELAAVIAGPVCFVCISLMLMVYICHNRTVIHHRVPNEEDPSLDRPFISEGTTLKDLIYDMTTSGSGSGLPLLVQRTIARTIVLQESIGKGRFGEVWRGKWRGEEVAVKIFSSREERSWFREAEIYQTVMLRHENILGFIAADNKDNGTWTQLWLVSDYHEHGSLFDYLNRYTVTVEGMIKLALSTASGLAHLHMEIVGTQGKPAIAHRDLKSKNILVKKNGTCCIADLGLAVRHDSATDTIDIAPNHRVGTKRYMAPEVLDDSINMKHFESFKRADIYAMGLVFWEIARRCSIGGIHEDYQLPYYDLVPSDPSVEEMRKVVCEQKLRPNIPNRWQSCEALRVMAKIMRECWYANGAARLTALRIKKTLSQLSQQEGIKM
# Experimental: as §1
# [7] = system: VEGF-induced pVEGFR; assay: Western blot of VEGF-induced VEGFR phosphorylation in HUVECs; type: cell-based, human; details: VEGF 40 ng/mL
# Experimental: EA.hy926 cells or HUVECs were seeded in 6-well plates and starved in a serum-free medium for 4 h after reaching 80% confluence. The compounds were added 30 min prior to stimulation with the corresponding ligands. EA.hy926 cells were incubated with BMP9 (1 ng/mL), BMP6 (50 ng/mL), TGF-β2 (1 ng/mL), or vehicle control for 1 h. For HUVECs, after 4 h starvation, the cells were pre-treated with or without the indicated compounds for 30 min and subsequently stimulated with VEGF (40 ng/mL) for 10 min. The cells were harvested and lysed in radioimmunoprecipitation assay (RIPA) lysis buffer containing 1× complete protease inhibitor cocktail (11836153001, Roche, Basel, Switzerland). The protein concentration was determined using the DC protein assay kit (5000111, Bio-Rad). After adding loading buffer, the samples were boiled and proteins separated by sodium dodecyl sulfate polyacrylamide gel electrophoresis (SDS-PAGE). […] The protein bands were quantified using ImageJ (National Institutes of Health, Bethesda, MD, USA).
# [8] = system: Tg (fli:EGFP) zebrafish embryos; assay: Zebrafish embryo toxicity assay; type: in vivo; details: 0.5 µM in egg water, three days
# Experimental: Breeding pairs of the transgenic Casper zebrafish line Tg (fli:EGFP) were put together in a tank, and the next morning, all embryos were collected as previously described. Fertilized eggs that were at the same development stage (around 2.5 h post-fertilization (hpf)) were selected under the microscope. The eggs were randomly divided into different groups, and each group contained about 20 embryos. All the embryos were raised in egg water (60 μg/mL sea salt) and placed in a 28 °C incubator. The compounds dissolved in DMSO were diluted in egg water to a final concentration of 0.5 µM. Equal amounts of DMSO were added to the vehicle control group. Egg water was changed every day, and abnormal embryos were removed. Embryos were recorded until day 3. All experiments were performed in technical triplicates and repeated three times, and representative results are shown. The survival rate was calculated according to the following formula: Survival rate (%) = 100% × (Number of zebrafish that survived at the end)/(Number of zebrafish present at the beginning).
# [9] = system: constitutively active ALK2 (caALK2); assay: caALK2-induced BRE-Luc reporter activity in C2C12 cells; type: cell-based; details: C2C12 cells, 0.1, 0.5 or 1 μM, 16 hours
# Excerpt: To further investigate and validate the selective inhibitory effects of OD16 and OD29 toward BMP9/ALK1 and BMP6/ALK2 signaling, we transfected C2C12 myoblast cells with constitutively active mutant ALK1 and ALK2 (caALK1 and caALK2). These constitutively active receptors signal in the absence of exogenous ligands and allow for a more direct assessment of inhibitory effects that are elicited by kinase receptor inhibitors.
# Figure S2. Structural model of (A) LDN−193189, (B) OD16 (grey) overlay with LDN−193189 (green), (C) OD29 (grey) over-lay with LDN−193189 (green) bind to the ALK1 hinge region in the ATP pocket.
# Figure S3. RT-qPCR analysis of the ALK1, ALK2 and GAPDH mRNA expression in EA.hy926 and HUVEC cells. Mean Cq and Cq standard error of the mean (SEM) are listed. Representative results from three independent experiments are shown.
# Figure S4. OD29 and OD16 are two small molecule BMP type I receptors kinase inhibitors in C2C12 cells. Effects of vehicle control (DMSO), LDN−193189, OD16 or OD29 on BRE transcriptional luciferase reporter activity induced by the ectopic expression of caALK1 (A) or caALK2 (B) in C2C12 cells. Cells were incubated with the inhibitors in three different con-centrations (0.1 μM, 0.5 μM or 1 μM) for 16 hours. Representative results from three biologically independent experiments are shown as mean ± SD. NS, not significant; * p < 0.05, ** p < 0.005; *** p < 0.001. […]
# Sequence of ALK1 (P37023 22-503): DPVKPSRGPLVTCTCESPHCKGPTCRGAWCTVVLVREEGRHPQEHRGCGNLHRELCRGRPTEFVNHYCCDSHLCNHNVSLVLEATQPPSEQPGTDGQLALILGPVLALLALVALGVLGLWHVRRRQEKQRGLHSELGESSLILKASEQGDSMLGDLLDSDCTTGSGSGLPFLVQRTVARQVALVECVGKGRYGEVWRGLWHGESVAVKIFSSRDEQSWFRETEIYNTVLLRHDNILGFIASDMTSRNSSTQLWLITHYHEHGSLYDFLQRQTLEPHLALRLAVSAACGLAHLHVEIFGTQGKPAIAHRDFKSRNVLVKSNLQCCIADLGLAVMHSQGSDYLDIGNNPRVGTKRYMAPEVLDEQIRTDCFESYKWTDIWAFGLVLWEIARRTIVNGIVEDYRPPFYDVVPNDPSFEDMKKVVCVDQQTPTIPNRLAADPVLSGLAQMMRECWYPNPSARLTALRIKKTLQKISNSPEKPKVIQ
Compound,Kd [1] [nM],Kd [2] [nM],Kd [3] [nM],Kd [4] [nM],Kd [5] [nM],Kd [6] [nM],effect on VEGF-induced pVEGFR [7],survival rate of the zebrafish [8],effect on caALK2-induced BRE-Luc reporter activity [9]
CN1CCC(=O)NCCNc2ccn3ncc(c3n2)-c2cccc(c2)C1 [OD29],6,558,10,1010,652,1010,did not affect,80–93%,
"c1ccc2c(-c3cnn4cc(-c5ccc(N6CCNCC6)cc5)cnc34)ccnc2c1 [LDN-193189, reference compound]",,,,,,,,,in a dose-dependent manner attenuated
CN1CCc2cccc(c2)Nc2nccc(n2)N2CCCc3cc(ccc32)C1 [OD16],20,220,17,55,270,360,,80–93%,
